“Also recorded” adds a separate entry of the source.
Key:
Dvl-3 PDZ = biological target: T1, Dvl-3 PDZ (Homo sapiens, UniProt Q92997); assay: Binding constant by isothermal titration calorimetry (ITC); settings: for T Δ S Dvl-3 PDZ / Δ G Dvl-3 PDZ / Δ H Dvl-3 PDZ: ITC; for Kd: by ITC, one-site binding model, 25 °C, read-out: K D Dvl-3 PDZ
T1 construct: spectra of Dvl-3 PDZ in the absence and presence of the compound; His-tag (cleaved yes); made in house
T1 sequence (Q92997 243-336): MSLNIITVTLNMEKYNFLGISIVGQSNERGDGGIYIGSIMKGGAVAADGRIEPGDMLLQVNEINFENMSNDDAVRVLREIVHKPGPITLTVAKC
Procedure: (§5) Isothermal titration calorimetry (ITC) experiments were performed using a VP-ITC system (MicroCal). Protein in 20 mM HEPES buffer and 50 mM NaCl (pH 7.4) was centrifuged and degassed before the experiment. A 200 µM ligand solution containing 2 % DMSO was injected 30 times in 10 µL aliquots at 120 s intervals with a stirring speed of 1000 rpm into a 1.4 mL sample cell containing the Dvl PDZ domain at a concentration of 20 µM at 25 ^∘ C. Control experiment was initially determined by titrating ligand into buffer at the same conditions. […] Thermodynamic properties and binding constants were determined by fitting the data with a non-linear least-squares routine using a single-site binding model with Origin (OriginLab) for ITC v.7.2 (MicroCal).

SW480 cells [1] = assay: Trans-well migration assay; type: cell-based; settings: 24 h, 50–100 µM
Procedure: (§1) Canonical Wnt signalling contributes to cancer progression by inducing high motility and invasion of cancer cells while retaining the self-renewal property of cancer-initiating cells (Fritzmann et al., 2009; Sack et al., 2011; Vermeulen et al., 2010; Malanchi et al., 2008). […] Compounds 18 and 20 prevented increased cell migration and sphere formation.
Cell motility was assessed using 24-well trans-well assay (pore diameter: 8 µm , Corning). SW480WL cells were seeded in the upper chamber in serum-free DMEM with 0.1 % BSA; 20 % serum was supplemented to medium in the lower chamber. After incubation with Wnt3a in the presence of Dvl inhibitors for 24 h, non-migrant cells were scraped off using a cotton swab; the migrated cells on the filters were stained with DAPI, photographed, and counted.

Dvl-1 PDZ = biological target: T2, Dvl-1 PDZ (Homo sapiens, UniProt O14640, C338S/V250I); settings: for T Δ S Dvl-1 PDZ / Δ G Dvl-1 PDZ / Δ H Dvl-1 PDZ: ITC
T2 sequence (O14640 245-338 V250I/C338S): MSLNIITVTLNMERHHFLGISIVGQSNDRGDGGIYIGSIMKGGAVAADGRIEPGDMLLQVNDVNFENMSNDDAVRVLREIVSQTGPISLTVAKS
Procedure: as §5

[2] = tested on: Wnt target genes (Axin2, LEF1, Bmp2) in HeLa cells; assay: qRT-PCR of Wnt target genes; type: cell-based; settings: HeLa cells treated with Wnt3a, 24 h; 150 µM
Source text: (§2) Increased β -catenin protein level is a hallmark of active Wnt signalling (Kishida et al., 1999). Once β -catenin is accumulated in the cytoplasm, it can translocate into the nucleus and activate the transcription of Wnt target genes by interacting with transcription factors of the TCF/LEF family (Fig. 2a) (Behrens et al., 1996). […] Increased mRNA levels of the Wnt target genes Axin2, LEF1, and Bmp2 (Riese et al., 1997; Jho et al., 2002; Lewis et al., 2010) were induced by Wnt3a treatment, as measured by qRT-PCR, and these increases were reduced by compounds 18, 20, and 21 (Fig. 2f).
To measure the Wnt target accumulation at mRNA level, HeLa cells were treated with Wnt3a in the presence of Dvl inhibitors for 24 h. mRNA was extracted according to the standard TRIzol® protocol (Invitrogen) and reverse-transcribed using random primers (Invitrogen) and M-MLV reverse transcriptase (Promega). The qRT-PCR was performed in a iQ5 multi-colour real-time PCR detection system (Bio-Rad) using SYBR® Green (Thermo Scientific) and gene-specific primer pairs of Bmp2, Axin2, LEF1, and β -actin (endogenous control).

[3] = tested on: β-catenin protein level in HeLa cells; assay: Western blotting of β-catenin levels; type: cell-based; settings: HeLa cells treated with Wnt3a, 24 h; 150 µM
Source text: as §2
To assess the β -catenin accumulation in HeLa cells, cells were treated with Wnt3a in the presence of Dvl inhibitors for 24 h and lysed in RIPA buffer (50 mM Tris, pH 8.0, 1 % NP-40, 0.5 % deoxycholate, 0.1 % SDS, 150 mM NaCl). Equal amounts of protein were loaded on a SDS-PAGE. Separated proteins were blotted onto PVDF membranes (polyvinylidene fluoride) for immunoblot analysis using anti- β -catenin antibody (610154, BD). HRP-conjugated anti-mouse antibody (715-035-150, Jackson ImmunoResearch Laboratories) was used for secondary detection with Western lightning chemiluminescence reagent plus (PerkinElmer) and Vilber Lourmat imaging system SL-3.

SW480 cells [4] = assay: Colon sphere culture (sphere formation); type: cell-based; settings: serum-free non-adherent culture, 10 d; 25–50 µM
Procedure: as §1
SW480WL cells were trypsinized into single cells, seeded on 24-well cell culture plates, pre-coated with 250 µL poly-HEMA (12 mg mL ^-1 in 95 % ethanol, Sigma) per well, and incubated with Wnt3a in the presence of Dvl inhibitors in the sphere culture medium (F12 : DMEM 1:1 , 1 × B-27 supplement, 20 ng mL ^-1 EGF, 20 ng mL ^-1 FGF, 0.5 % methylcellulose) for 10 d. Numbers of spheres were then counted under the microscope.

[5] = tested on: canonical Wnt signalling (β-catenin/TCF-dependent GFP) in HEK293 reporter cell line; assay: TOP-GFP reporter assay (Wnt3a-induced); type: cell-based; settings: Homo sapiens, 24 h, read-out: IC 50 Wnt3a-induced Wnt activation (TOP-GFP)
Source text: Taking advantage of a lentivirus that encodes GFP in a β -catenin/TCF-dependent fashion (TOP-GFP, SABiosciences), a stable HEK293 reporter cell line was established to evaluate the inhibitory effect of compounds 18, 20, and 21 on canonical Wnt signalling activity. TOP-GFP expression in this cell line was induced by the ligand Wnt3a, which directly activates the Frizzled–Dishevelled complex and protects β -catenin from degradation by the destruction complex (Fig. 2a).
The lentivirus particle (CCS-018L, SABiosciences) encoding GFP under the control of a basal promoter element (TATA box) joined to tandem repeats of a consensus TCF/LEF binding site was transfected into HEK293 cells. Stable cells were selected by puromycin (2 µgmL^-1 ) treatment. Wnt signalling activity indicated by GFP intensity was measured by flow cytometry after 24 h incubation with recombinant mouse Wnt3a (100 ng mL ^-1 ) or GSK3 inhibitor CHIR99021 (3 µM ) in the presence of Dvl inhibitors.

Oct4 = assay: Oct-luciferase reporter assay; type: cell-based; settings: stimulated by overexpression of Oct4
Procedure: (§3) To further evaluate the specificity of our Dvl inhibitors, the conventional TOPflash (Molenaar et al., 1996) and other luciferase reporter assays were performed.
(§4) Plasmids encoding a firefly luciferase reporter gene under the control of different responsive elements were transfected into HeLa cells with a pRL-SV40 normalization reporter plasmid using the Lipofectamine 2000 (Invitrogen). After desired treatment, cells were harvested in the passive lysis buffer (Promega), and 15 µL cell lysate was transferred to 96-well LumiNunc plates (Thermo Scientific). Firefly luciferase and Renilla luciferase were detected with the D-luciferin buffer (75 mM HEPES, 4 mM MgSO 4 , 20 mM DTT, 100 µM EDTA, 0.5 mM ATP, 135 µM Coenzyme A, and 100 µM D-Luciferin sodium salt; pH 8.0) and the coelenterazine buffer (15 mM Na4PPi, 7.5 mM NaAc, 10 mM CDTA, 400 mM Na 2 SO 4 , 25 µM APMBT, and 1.1 µM coelenterazine; pH 5.0), respectively, using the CentroXS LB960 lumiometer (Berthold Technologies).

NF-κB signalling = assay: NF-κB-luciferase reporter assay; type: cell-based; settings: stimulated by recombinant TNFα
Procedure: as §3, §4

[6] = tested on: Wnt signalling (TOP-luciferase) in HeLa cells; assay: TOPflash luciferase reporter assay; type: cell-based
Procedure: as §3, §4

Notch signalling = assay: Notch-luciferase reporter assay; type: cell-based; settings: stimulated by overexpression of Notch intracellular domain
Procedure: as §3, §4

Dvl PDZ = settings: internal Frizzled sequence; ref Wong et al., 2003; Chandanamali et al., 2009; read-out: K D Dvl PDZ domains; cited from earlier work

Compound	T Δ S Dvl-3 PDZ (Dvl-3 PDZ)	Δ G Dvl-3 PDZ (Dvl-3 PDZ)	Δ H Dvl-3 PDZ (Dvl-3 PDZ)	n (stoichiometry) Dvl-3 PDZ (Dvl-3 PDZ; ITC one-site fit)	Kd (Dvl-3 PDZ)	migration of SW480 cells enhanced by Wnt3a (SW480 cells [1])	T Δ S Dvl-1 PDZ (Dvl-1 PDZ)	Δ G Dvl-1 PDZ (Dvl-1 PDZ)	Δ H Dvl-1 PDZ (Dvl-1 PDZ)	n (stoichiometry) Dvl-1 PDZ (Dvl-1 PDZ; ITC one-site fit)	transcription of Wnt target genes (Axin2, LEF1, Bmp2) [2]	accumulation of β-catenin [3]	sphere formation of SW480 cells enhanced by Wnt3a (SW480 cells [4])	IC50 [5]	effect on Oct-luciferase (Oct4)	effect on NF-κB-luciferase (NF-κB signalling)	effect on Chir99021-induced Wnt activation (TOPflash) [6]	effect on TOP-luciferase signals stimulated by Wnt3a [6]	effect on Notch-luciferase (Notch signalling)	Kd (Dvl PDZ)
Cc1ccc(NS(=O)(=O)c2ccc(CNC(=O)c3n[nH]c4ccccc34)c(Cl)c2)c(C(=O)O)c1 [Compound 18]	-1.2 kcal mol ^-1	-6.7 kcal mol ^-1	-8.0 kcal mol ^-1	1.14	9.4 ± 0.6 µM	reduced the migration; also recorded: prevented	-4.7 kcal mol ^-1	-7.5 kcal mol ^-1	-12.2 kcal mol ^-1	1.12	reduced the transcription	inhibited accumulation	reduced sphere formation; also recorded: prevented	50 to 75 µM						
Cc1ccc(NS(=O)(=O)c2ccc(CNC(=O)c3cc(Br)c[nH]3)c(Cl)c2)c(C(=O)O)c1 [Compound 20]	-3.6 kcal mol ^-1	-6.8 kcal mol ^-1	-10.4 kcal mol ^-1		9.8 ± 0.3 µM	reduced the migration; also recorded: prevented	-2.2 kcal mol ^-1	-7.2 kcal mol ^-1	-9.4 kcal mol ^-1		reduced the transcription	inhibited accumulation	reduced sphere formation; also recorded: prevented	50 to 75 µM	no or a mild effect; also recorded: no significant inhibitory effects	no or a mild effect; also recorded: no significant inhibitory effects	no or a mild effect	specifically inhibited	no or a mild effect; also recorded: no significant inhibitory effects	
Cc1ccc(NS(=O)(=O)c2ccc(CNC(=O)c3cc(Cl)c[nH]3)c(Cl)c2)c(C(=O)O)c1 [Compound 21]	0.7 kcal mol ^-1	-6.8 kcal mol ^-1	-5.9 kcal mol ^-1		12.5 ± 0.5 µM		-1.5 kcal mol ^-1	-7.0 kcal mol ^-1	-8.5 kcal mol ^-1		reduced the transcription	inhibited accumulation		50 to 75 µM						
Frizzled peptide 525(GKTLQSWRRFYH)536: Frizzled peptide with internal sequence KTXXXW recognized by Dvl PDZ domains																				~10 µM
